# Data taken from PubChem BioAssay (NCI).
#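 96-well plates; 48 h exposure; 5 concentrations. Endpoints by linear interpolation between flanking doses. Not reached: highest tested concentration assigned. TGI denotes the concentration required for complete inhibition of growth.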
# Experiments:
# Test in all cases: DTP human tumour cell line panel, 48 h
# [1] = system: SK-MEL-2 melanoma
# [2] = system: COLO 205 colon
# [3] = system: MALME-3M melanoma
# [4] = system: KM12 colon
# [5] = system: UO-31 renal
# [6] = system: SNB-78 CNS
# [7] = system: SK-OV-3 ovarian
# [8] = system: OVCAR-5 ovarian
# [9] = system: SR leukemia
# [10] = system: NCI-H226 lung
# [11] = system: HL-60(TB) leukemia
# [12] = system: BT-549 breast
# [13] = system: ACHN renal
# [14] = system: HCT-15 colon
# [15] = system: MOLT-4 leukemia
# [16] = system: LXFL 529 NSCLC
# [17] = system: OVCAR-3 ovarian
# [18] = system: RPMI-8226 leukemia
# [19] = system: DU-145 prostate
# [20] = system: UACC-257 melanoma
# [21] = system: CCRF-CEM leukemia
# [22] = system: XF 498 CNS
# [23] = system: TK-10 renal
# [24] = system: OVCAR-8 ovarian
# [25] = system: EKVX NSCLC
# [26] = system: M14 melanoma
# [27] = system: SF-268 CNS
# [28] = system: SK-MEL-28 melanoma
# [29] = system: PC-3 prostate
# [30] = system: HOP-62 NSCLC
# [31] = system: CAKI-1 renal
# [32] = system: 786-0 renal
# [33] = system: M19-MEL melanoma
# [34] = system: HOP-92 NSCLC
# [35] = system: MDA-N
# [36] = system: LOX IMVI melanoma
# [37] = system: DMS 114 small cell lung
# [38] = system: MDA-MB-435
# [39] = system: SN12C renal
# [40] = system: KM20L2 colon
# [41] = system: SK-MEL-5 melanoma
# [42] = system: U251 CNS
# [43] = system: NCI-H522 lung
# [44] = system: HCT-116 colon
# [45] = system: MDA-MB-231 breast
# [46] = system: A549 NSCLC
# [47] = system: OVCAR-4 ovarian
# [48] = system: MCF7 breast
# [49] = system: SW-620 colon
# [50] = system: NCI/ADR-RES ovarian
# [51] = system: DLD-1 colon
# [52] = system: RXF 393 renal
# [53] = system: SF-295 CNS
# [54] = system: HT29 colon
# [55] = system: K-562 leukemia
# [56] = system: UACC-62 melanoma
# [57] = system: NCI-H460 lung
# [58] = system: HCC-2998 colon
# [59] = system: SNB-75 CNS
# [60] = system: A498 renal
# [61] = system: IGROV1 ovarian
# [62] = system: SF-539 CNS
# [63] = system: NCI-H23 lung
# [64] = system: SNB-19 CNS
smiles,measurement,setting,value
COc1ccc(/C=C2/C(=O)N(C(=O)c3ccccc3O)N=C2C)cc1OC,TGI,[1],> 30.9 µM
same,TGI,[2],> 95.1 µM
same,TGI,[3],> 100 µM
same,TGI,[4],> 100 µM
same,TGI,[5],> 100 µM
same,TGI,[6],> 100 µM
same,TGI,[7],> 100 µM
same,TGI,[8],> 100 µM
same,TGI,[9],> 100 µM
same,TGI,[10],40.5 µM
same,TGI,[11],> 33.6 µM
same,TGI,[12],> 100 µM
same,TGI,[13],> 100 µM
same,TGI,[14],> 100 µM
same,TGI,[15],> 100 µM
same,TGI,[16],> 100 µM
same,TGI,[17],10.5 µM
same,TGI,[18],> 100 µM
same,TGI,[19],> 100 µM
same,TGI,[20],> 100 µM
same,TGI,[21],> 100 µM
same,TGI,[22],> 100 µM
same,TGI,[23],> 100 µM
same,TGI,[24],> 100 µM
same,TGI,[25],> 100 µM
same,TGI,[26],> 55.6 µM
same,TGI,[27],> 100 µM
same,TGI,[28],> 100 µM
same,TGI,[29],> 100 µM
same,TGI,[30],> 20.8 µM
same,TGI,[31],> 28.1 µM
same,TGI,[32],> 100 µM
same,TGI,[33],65.4 µM
same,TGI,[34],> 100 µM
same,TGI,[35],> 100 µM
same,TGI,[36],> 54.2 µM
same,TGI,[37],3.61 µM
same,TGI,[38],> 100 µM
same,TGI,[39],> 50.7 µM
same,TGI,[40],> 100 µM
same,TGI,[41],24.6 µM
same,TGI,[42],> 100 µM
same,TGI,[43],> 100 µM
same,TGI,[44],> 100 µM
same,TGI,[45],> 100 µM
same,TGI,[46],> 100 µM
same,TGI,[47],> 100 µM
same,TGI,[48],33.9 µM
same,TGI,[49],> 100 µM
same,TGI,[50],> 100 µM
same,TGI,[51],> 100 µM
same,TGI,[52],97 nM
same,TGI,[53],> 100 µM
same,TGI,[54],> 100 µM
same,TGI,[55],> 100 µM
same,TGI,[56],591 nM
same,TGI,[57],> 100 µM
same,TGI,[58],> 100 µM
C=CCC(C(=O)OC)C1(C(=O)OC)c2[nH]c3ccccc3c2CCN1Cc1ccccc1 (stereo not given),TGI,[1],> 100 µM
same,TGI,[2],> 100 µM
same,TGI,[3],> 100 µM
same,TGI,[4],> 100 µM
same,TGI,[59],> 100 µM
same,TGI,[5],> 100 µM
same,TGI,[60],> 100 µM
same,TGI,[7],> 100 µM
same,TGI,[8],> 100 µM
same,TGI,[9],> 100 µM
same,TGI,[61],> 100 µM
same,TGI,[11],> 100 µM
same,TGI,[14],> 100 µM
same,TGI,[15],> 100 µM
same,TGI,[62],> 100 µM
same,TGI,[17],> 100 µM
same,TGI,[18],> 100 µM
same,TGI,[21],> 100 µM
same,TGI,[23],> 100 µM
same,TGI,[24],> 100 µM
same,TGI,[25],> 100 µM
same,TGI,[26],> 100 µM
same,TGI,[27],> 100 µM
same,TGI,[28],> 100 µM
same,TGI,[30],> 100 µM
same,TGI,[31],> 100 µM
same,TGI,[63],> 100 µM
same,TGI,[32],> 100 µM
same,TGI,[33],> 100 µM
same,TGI,[34],74.6 µM
same,TGI,[37],> 100 µM
same,TGI,[39],> 100 µM
same,TGI,[40],> 100 µM
same,TGI,[41],> 100 µM
same,TGI,[42],> 100 µM
same,TGI,[43],> 100 µM
same,TGI,[44],> 100 µM
same,TGI,[64],> 100 µM
same,TGI,[46],> 100 µM
same,TGI,[47],> 100 µM
same,TGI,[49],> 100 µM
same,TGI,[51],> 100 µM
same,TGI,[52],> 100000 nM
same,TGI,[53],> 100 µM
same,TGI,[54],> 100 µM
same,TGI,[56],> 100000 nM
same,TGI,[58],> 100 µM
